Laboratory results taken from patent US20160175214A1, “ANHYDROUS COSMETIC COMPOSITION FOR TOPICAL APPLICATION” (The Procter & Gamble Company, priority 2014, published 2016).

Test: Solubility in hydrophobic anhydrous, glycol free, antiperspirant free stick formulations
Assay type: physicochemical
Description: Additional considerations regarding exemplary Vitamin B5 derivatives may apply. For example, in order to deliver Vitamin B5 (or a derivative thereof) from an anhydrous, hydrophobic, glycol free and antiperspirant free cosmetic stick, a corresponding matrix soluble form or derivative of Vitamin B5 must be used to achieve the desired benefits of hair softening, shave bump reduction and wound healing from shave cut damage. For example, if an incompatible or insoluble form of Vitamin B5 is used, such as panthenol, this will not form a homogenous one phase solution when the ingredients are blended and heated together from the melt.
As such, the Vitamin B5 derivative utilized should be soluble in the anhydrous, hydrophobic, glycol free and antiperspirant free matrix.

Solublility in hydrophobic Anhydrous, glycol free, antiperspirant free Stick formulations: Soluble
SMILES: CCOCC(C)(C)C(O)C(=O)NCCCO (stereo not shown) [Panthenyl Ethyl Ether]
